Values quoted from earlier work in patent US7179486B1, “Process for preparing sustained release tablets” (Nostrum Pharmaceuticals, Inc., priority 1997, dated 2007).

O=C(O)c1cccnc1 [niacin, Niacin]
dosage release within a one hour period causing a flushing response in most subjects: more than 75 mg
